Measured values as given in patent US10624947B2, “Bactericidal peptides and uses thereof” (INDIANA UNIVERSITY RESEARCH AND TECHNOLOGY CORPORATION, priority 2016, dated 2020).
Like-named read-outs stand apart in the source and are kept apart here. Ends that are not written are not given here.

Key:
Klebsiella pneumoniae = conditions: Table 5
Description: (§1) Antimicrobial activity was determined using the broth microdilution method based on the general recommendation of the Clinical and Laboratory Standards Institute. Bacteria were grown in Mueller-Hinton broth at 37° C. until OD625 reached 0.06, and then bacteria were further diluted into 1:20 for later use. […] 10 microliter (μL) of diluted bacteria was mixed with 90 μL of peptides at varying concentrations followed by incubation at 37° C. for 16-18 hours. The MIC is the lowest peptide concentration at which visible growth was inhibited. The MIC value was determined at least twice in independent experiments and typically in 3-4 assays.

[1] = system: human red blood cells (hRBCs); test: Hemolytic activity; format: cell-based
Description: The amount of hemoglobin released was measured by the absorbance at 435 nm after a 60-minute incubation with the antimicrobial peptide. The percentage of hRBC lysis was normalized to the amount hemoglobin released by the suspension of the hRBCs in deionized water. The background amount of hRBC lysis was determined by adding phosphate buffered saline (PBS) at the same volume as 8 μM of the peptide to the hRBC for 1 h.
The hemolytic activities of peptides were determined using human red blood cells (hRBCs) (Innovative Research, Inc., cat. # IPLA-WB3-18103). The hRBCs were washed three times with PBS and then resuspended in PBS. The hRBCs solution was mixed with serial dilutions of the peptides in PBS buffer. The reaction mixtures were incubated for 45 min at 37° C. After centrifugation at 94×g for 10 min, the intact hRBCs were pelleted and the hemoglobin released from hRBCs was monitored by measuring the absorbance of the supernatant at 415 nm. The background level of absorbance was measured in sampled incubated with only PBS buffer. 100% hemolysis was determined in sampled incubated with water. The percentage of hemolysis was calculated according to the following equation. Percentage of hemolysis=[(Asample−Ablank)/Awater]*100%
Mammalian cells are thought to be less susceptible to cathelicidin peptides in part because the composition of their membrane will be less likely to interact with the peptides. To address this directly, human red blood cells (hRBCs) were tested for lysis after a 45-minute incubation with the peptides. The total lysis of hRBCs was determined by adding water to the cells. The amount of lysis during handling was determined by the addition of phosphate buffered saline at the same volume as that of the peptides.

Cultured human cells = test: MTT cytotoxicity assay; format: cell-based

Description for Escherichia coli: as §1

Row | Substance | MIC (Escherichia coli; Table 5, Escherichia coli ATCC25922, antibiotic resistance none) [µM] | MIC (Klebsiella pneumoniae; Klebsiella pneumonia 27, Carbapenem resistant) [µM] | MIC (Klebsiella pneumoniae; Klebsiella pneumonia 49, Carbapenem resistant) [µM] | MIC (Klebsiella pneumoniae; Klebsiella pneumonia 83, Carbapenem resistant) [µM] | MIC (Klebsiella pneumoniae; Klebsiella pneumonia 84, Carbapenem resistant) [µM] | MIC (Klebsiella pneumoniae; Klebsiella pneumonia 88, Carbapenem resistant (NDM1+)) [µM] | MIC (Klebsiella pneumoniae; Klebsiella pneumonia 262, Carbapenem resistant (NDM1+)) [µM] | RBC lysis [1] | Cytotoxicity, MTT assay (Cultured human cells) | Minimal inhibitory concentration (Escherichia coli) [µg/mL] | Minimal inhibitory concentration (Escherichia coli; E. coli ATCC 35218) [µg/mL] | Minimal inhibitory concentration (Escherichia coli; E. coli ATCC 25922) [µg/mL] | Minimal inhibitory concentration (Escherichia coli; E. coli IU0342) [µg/mL]
1 | Colistin sulfate [reference compound] | 1 | >32 | 4 | 2 | 2 | 16 | 16 |  |  |  |  |  | 
2 | GRAKRLRKKLKKLAKKLSPVIPLLHLG [BMAP-27C] |  |  |  |  |  |  |  | decreased RBC lysis compared to the control H2O | no increased cytotoxicity compared to the controls | 32 | 4 |  | 
3 | GRFKRFRKKFKKLFKKLSPVIPLLHLG [BMAP-27, reference compound] |  |  |  |  |  |  |  | decreased RBC lysis compared to the control H2O | no increased cytotoxicity compared to the controls | 8 |  |  | 
4 | GRFKRLRKKFKKLFKKLSPVIPLLHLG [BMAP-27A] |  |  |  |  |  |  |  | decreased RBC lysis compared to the control H2O | no increased cytotoxicity compared to the controls | 8 | 2 | 2 | 2
